Source: US11414379B2, “SPAK kinase inhibitors as neuroprotective agents” (United States Government as represented by the Department …, priority 2018, dated 2022)

Legend:
SPAK pSer373 = assay: Phosphorylation immunoblot in KCC2-transfected HEK293 cells; format: cell-based, human; design: key: “—” showed no inhibition of phosphorylation of SPAK/NKCC1/KC22; conditions: concentration inhibiting phosphorylation; for SPAK pSer373 (μM) hypo: hypotonic low Cl- conditions; for SPAK pSer373 (μM) Iso: isotonic conditions
Experimental: (§1) HEK293 (human embryonic kidney 293) cells were cultured on 10-cm-diameter dishes in DMEM supplemented with 10% (v/v) foetal bovine serum, 2 mM L-glutamine, 100 U/ml penicillin and 0.1 mg/ml streptomycin. HEK293 cells were transfected with a mixture of 20 μl of 1 mg/ml polyethylenimine (Polysciences) and 5-10 μg of plasmid DNA as described previously (Durocher et al., 2002). 36 hours post-transfection cells were stimulated with either control isotonic or hypotonic medium for a period of 30 minutes. Cells were lysed in 0.3 mL of ice-cold lysis buffer/dish, lysates were clarified by centrifugation at 4° C. for 15 minutes at 26,000 g and the supernatant aliquots were frozen in liquid nitrogen and stored at −20° C. Protein concentrations were determined using the Bradford method. Cells were treated with the indicated concentrations of the SPAK/OSR1 inhibitors. […] Hypotonic low chloride buffer was 67.5 mM sodium-gluconate, 2.5 mM potassium-gluconate, 0.25 mM CaCl2), 0.25 mM MgCl2, 0.5 mM Na2HPO4, 0.5 mM Na2SO4 and 7.5 mM HEPES (pH 7.5).
(§2) The membranes were incubated for 30 min with TBST (Tris-buffered saline, 0.05% Tween-20) containing 5% (w/v) skim milk. The blots were then washed six times with TBST and incubated for 1 hour at room temperature with secondary HRP-conjugated antibodies diluted 5000-fold in 5% (w/v) skim milk in TBST. After repeating the washing steps, signals were detected with enhanced chemiluminescence reagent. Immunoblots were developed using a film automatic processor (SRX-101; Konica Minolta Medical) and films were scanned at 600 dpi (PowerLook 1000; UMAX). Figures were generated using Photoshop/Illustrator (Adobe). The densities of bands were measured with ImageJ. For phospho-antibody immunoprecipitation, KCC isoforms were immunoprecipitated from indicated cell extracts. 2 mg of the indicated clarified cell extract were mixed with 15 μg of the indicated phospho-specific KCC antibody conjugated to 15 μl of protein-G-Sepharose, in the added presence of […] of the dephosphorylated form of the phosphopeptide antigen, and incubated 2 hours at 4° C. with gentle shaking. Immunoprecipitates were washed three times with 1 mL of lysis buffer containing 0.15 M NaCl and twice with 1 ml of buffer A. Bound proteins were eluted with 1×LDS sample buffer.
(§3) HEK293 cells were transfected with a DNA construct encoding wild type N-terminally FLAG-tagged KCC2. 36 hrs post-transfection, cells were exposed 30 min to either control isotonic or hypotonic low [C1^−] conditions, then treated in the same conditions for an additional 30 min with the indicated inhibitors at the concentrations noted. Cell lysates were subjected to SDS-PAGE and Western blotting with the indicated antibodies. See FIG. 3 for Western blot quantitation.
(§4) Referring to FIG. 2, concentration-response experiments testing effects of Closantel analogs on phosphorylation of KCC2 Thr906/Thr1007 are shown. HEK293 cells were transfected with DNA construct encoding wild type N-terminally FLAG-tagged KCC2. 36 h post-transfection, cells were exposed 30 min to either control isotonic conditions or hypotonic low Cl^− conditions, then treated in the same conditions with the specified inhibitors (1b, 1c, 1f, 1d, 1h, and 1g, respectively) at the indicated concentrations for an additional 30 min. Lysates were subjected to SDS-PAGE and Western blotting with the indicated antibodies.
(§5) Referring to FIG. 3, HEK293 cells were transfected with the DNA construct encoding wild type N-terminally FLAG-tagged KCC2. 36 h post-transfection, cells were exposed 30 min to either control isotonic or hypotonic low Cl^− conditions, then treated in the same conditions with the specified inhibitors at the indicated concen-trations for an additional 30 min. Lysates were subjected to SDS-PAGE and Western blotting with the indicated antibodies. Closantel, STOCK1S-14279 and STOCK1S-50699 were used as reference compounds.

KCC2 pThr1007 = assay: as above; format: cell-based, human; design: key: “—” showed no inhibition of phosphorylation of SPAK/NKCC1/KC22; conditions: concentration inhibiting phosphorylation; for KCC2 pThr1007 (μM) hypo: hypotonic low Cl- conditions; for KCC2 pThr1007 (μM) Iso: isotonic conditions
Experimental: as §1, §2, §3, §4, §5

KCC2 pThr906 = assay: as above; format: cell-based, human; design: key: “—” showed no inhibition of phosphorylation of SPAK/NKCC1/KC22; conditions: concentration inhibiting phosphorylation; for KCC2 pThr906 (μM) hypo: hypotonic low Cl- conditions; for KCC2 pThr906 (μM) Iso: isotonic conditions
Experimental: as §1, §2, §3, §4, §5

NKCC1 pThr203 = assay: as above; format: cell-based, human; design: key to NKCC1 pThr203 (μM) Iso / NKCC1 pThr203 (μM) hypo: “—” showed no inhibition of phosphorylation of SPAK/NKCC1/KC22; conditions: concentration inhibiting phosphorylation; for NKCC1 pThr203 (μM) hypo: hypotonic low Cl- conditions; for NKCC1 pThr203 (μM) Iso: isotonic conditions
Experimental: as §1, §2, §3, §4, §5

GST-[T233E]SPAK kinase = target: T1, GST-[T233E]SPAK kinase (Homo sapiens, UniProt Q9UEW8, T231E); assay: SPAK kinase assay employing CATCHtide; format: biochemical; conditions: SPAK activity at different ATP concentrations
T1 construct: made in house; host or cells: E. coli
Experimental: SPAK kinase assays employing CATCHtide (cation chloride co-transporter peptide substrate). Peptide kinase assays, performed in triplicate, were set up in a total volume of 50 μl containing 0.5 μg GST-[T233E]SPAK kinase (˜5 nM at ˜10% purity) in 50 mM Tris/HCl, pH 7.5, 0.1 mM EGTA, 10 mM MgCl2, 300 μM CATCHtide ([…]; SEQ ID NO:1), […] [γ-32P]ATP (˜500 cpm/pmol) and the indicated concentrations of inhibitor dissolved in DMSO. After incubation for 30 min at 30° C., reactions were terminated by spotting 40 μl of the reaction mix onto P81 phosphocellulose paper and immersion in 50 mM phosphoric acid. The papers were washed extensively and the incorporation of [γ-^32P]ATP into CATCHtide was quantified by Cerenkov counting. IC^50 values were calculated with GraphPad Prism using non-linear regression analysis.
Referring to FIG. 7A, the activation of SPAK kinase by MO25α is shown. SPAK was assayed in the absence or presence of five-fold molar excess of wild-type MO25α.
Referring to FIG. 7B, kinetic data was determined for ZT-1a in the absence or presence of five-fold molar excess of wild-type MO25α. Data points are the average of three determinations, and the error bars are +/−SEM.

SMILES	SPAK pSer373 (μM) hypo (SPAK pSer373)	SPAK pSer373 (μM) Iso (SPAK pSer373)	KCC2 pThr1007 (μM) hypo (KCC2 pThr1007)	KCC2 pThr1007 (μM) Iso (KCC2 pThr1007)	KCC2 pThr906 (μM) hypo (KCC2 pThr906)	KCC2 pThr906 (μM) Iso (KCC2 pThr906)	NKCC1 pThr203 (μM) hypo (NKCC1 pThr203)	NKCC1 pThr203 (μM) Iso (NKCC1 pThr203)	change of IC50 values with increasing ATP concentrations (GST-[T233E]SPAK kinase)
Cc1cc(C(C#N)c2ccc(Cl)cc2)c(Cl)cc1NC(=O)c1ccccc1N (stereo not shown) [Compound 1d, 2-amino-n-(5-chloro-4-((4-chlorophenyl)(cyano)methyl)-2-methylphenyl)-benzamide]	3, 3 μM	3, 3 μM	3, 3 μM	3, 3 μM	10, 10 μM	10, 10 μM	3 μM	1 μM	
COc1ccc(Cl)cc1C(=O)Nc1cc(Cl)c(C(C#N)c2ccc(Cl)cc2)cc1C (stereo not shown) [Compound 1j]	—	—	—	—	—	—	—	—	
Cc1cc(C(C#N)c2ccc(Cl)cc2)c(Cl)cc1NC(=O)c1ccccc1S (stereo not shown) [Compound 1c, N-(5-chloro-4-((4-chlorophenyl)(cyano)methyl)-2-methylphenyl)-2-mercapto-benzamide]	3, 3 μM	3, 3 μM	3, 3 μM	3, 3 μM	10, 10 μM	10, 10 μM	3 μM	1 μM	
CN[C@@H]1C[C@H]2O[C@@](C)([C@@H]1OC)n1c3ccccc3c3c4c(c5c6ccccc6n2c5c31)C(=O)NC4 [staurosporine, reference compound]									increased in a dose-proportional manner
Cc1cc(C(C#N)c2ccc(Cl)cc2)c(Cl)cc1NC(=O)c1cccc(O)c1O (stereo not shown) [Compound 1i, N-(5-chloro-4-((4-chlorophenyl)(cyano)methyl)-2-methylphenyl)-2,3-dihydroxy-benzamide]	—	—	—	—	—	—	—	—	
Cc1cc(C(C#N)c2ccc(Cl)cc2)c(Cl)cc1NC(=O)c1ccccc1O (stereo not shown) [Compound 1b, N-(5-chloro-4-((4-chlorophenyl)(cyano)methyl)-2-methylphenyl)-2-hydroxy-benzamide]	3, 3 μM	3, 3 μM	3, 3 μM	3, 3 μM	10, 10 μM	10, 10 μM	1 μM	3 μM	
Cc1cc(C(C#N)c2ccc(Cl)cc2)c(Cl)cc1NC(=O)c1cccc(F)c1O (stereo not shown) [Compound 1h, N-(5-chloro-4-((4-chlorophenyl)(cyano)methyl)-2-methylphenyl)-3-fluoro-2-hydroxy-benzamide]	3, 3 μM	3, 3 μM	3, 3 μM	3, 3 μM	10, 10 μM	10, 10 μM	3 μM	1 μM	
Cc1cc(C(C#N)c2ccc(Cl)cc2)c(Cl)cc1NC(=O)c1ccccc1[N+](=O)[O-] (stereo not shown) [Compound 1e, N-(5-chloro-4-((4-chlorophenyl)(cyano)methyl)-2-methylphenyl)-2-nitrobenzamide]	—	—	—	—	—	—	—	—	
Cc1cc(C(C#N)c2ccc(Cl)cc2)c(Cl)cc1NC(=O)c1cc(Cl)cc(Cl)c1O (stereo not shown) [Compound 1f, 3,5-dichloro-n-(5-chloro-4-((4-chlorophenyl)(cyano)methyl)-2-methylphenyl)-2-hydroxy-benzamide]	3, 3 μM	3, 3 μM	3, 3 μM	3, 3 μM	10, 10 μM	10, 10 μM	3 μM	1 μM	
Cc1cc(C(C#N)c2ccc(Cl)cc2)c(Cl)cc1NC(=O)c1cc(F)ccc1O (stereo not shown) [Compound 1g]	3, 3 μM	3, 3 μM	3, 3 μM	3, 3 μM	10, 10 μM	10, 10 μM	3 μM	1 μM	
